# Measured values published in patent US8623408B2, “Cladribine formulations for improved oral and transmucosal delivery” (Ares Trading S.A., priority 2003, dated 2014).
# Values joined by “and” are separate entries in the source; they are usually repeats but may differ in a detail not shown here. Identical values can stand only once. Like-named read-outs stand apart in the source and are kept apart here.
# Assay: Bioavailability and pharmacokinetic studies in beagle dog model
# Type: in vivo
# Parameters: AUC/Dose: unit not given here
# Conditions: dogs; for AUC/Dose: dose in mg/kg; for concentration at 5 min: 5 mg/animal, read-out: Cfirst (first measured concentration at 5 minutes)
# Experimental: The bioavailability of cladribine when complexed with γCD or HPβCD was evaluated in a beagle dog model.
# Bioavailability and pharmacokinetic studies were conducted in a beagle dog model as follows.
# Outbred male beagle dogs (identified as PM01-PM06) obtained from IDRI (Dunakeszi, Hungary) were allowed laboratory diet and water ad libitum. The same dogs were used throughout the study to minimize inter- and intrasubject variability. The bioavailability and pharmacokinetic studies were conducted as follows.
# In the first test period, 5 mg cladribine (0.25 mg/ml in isotonic saline) was administered intravenously to test subjects. Blood samples were collected at various time intervals over 48 hours. In the second test period, half of the subjects received buccally a tablet as described above containing a saturated cladribine-γCD or -HPβCD complex. Serial blood samples were collected over 48 hours. The third test period repeated the second test period with the exception that the subjects previously receiving the γ-cyclodextrin buccal tablet were now given hydroxypropyl-β-cyclodextrin buccal tablets, with hydroxypropyl-β-cyclodextrin tablet recipients from the second period receiving γ-cyclodextrin buccal tablets. The fourth and fifth test periods repeated test periods two and three with the exception that the tablets were given orally.
# Cladribine levels in the blood were measured by HPLC and an LC/MS/MS method. The TopFit 2.0 Pharmacokinetic and Pharmacodynamic Data Analysis System was used for the pharmacokinetic analysis of the data.
# The peak areas, calibration curves, accuracy, precision values and the concentrations were determined using Analyst Software 1.1 (PE SCIEX, Foster City, US). For calculation of mean and standard deviation, Excel 5.0 software was used. The calibration curve was fitted using the ratio of concentrations of analyte and internal standard versus the ratio of the peak areas of them. A straight line was fitted on the experimental points by weighted least squares linear regression analysis. The weighting scheme used was 1/concentration squared as pg/ml plasma.
# For calculation of mean, standard deviation and CV %, Excel 5.0 software was used. Lower levels than the limit of quantification were not accepted. Mean and S.D. values were calculated only for the concentrations measured after intravenous administration.
# Pharmacokinetic analysis was performed on the basis of individual plasma concentration versus time curves. The mean and S.D. of parameters obtained from individual data were calculated. The linear-trapezoidal rule was used for calculation of the area under the plasma concentration time curve from 0 until the last measured concentration (AUD). Using the terminal regression line the area extrapolated to infinity (AUCt-∞) was calculated in the following way: AUCt-∞=ccalc/λz • where: Ccalc represents the estimated plasma concentration by the regression line at the last sampling time point with measured concentration above the limit of quantification, and λz represents the rate constant calculated from the regression line.
# The points determining the regression line, i.e. the terminal phase, were selected by visual determination of the linear segment of the semilogarithmic curve. The total area under the curve (AUC) was calculated by adding together the partial areas: AUC=AUD+AUCt-∞. The AUC values were normalized by the actual dose given in the particular period. For calculation of the bioavailability, the buccal/oral AUC/dose value was divided by the intravenous AUC/dose value.
# [1] = intravenous bolus, 5 mg cladribine/animal, Mean of 6 dogs
# [2] = intravenous bolus, 5 mg cladribine/animal, individual dogs PM01-PM06
smiles,measurement,setting,value
"Nc1nc(Cl)nc2c1ncn2[C@H]1C[C@H](O)[C@@H](CO)O1 [cladribine, 2-chloro-2′-deoxyadenosine]",AUD,[1],377 ng·h/mL
same,AUDext,[1],1.4%
same,Cinitial (extrapolated value at the end of the bolus),[1],563 ng/mL
same,MRTtot,[1],1.3 h
same,AUC/Dose,[1],967
same,AUC/Dose,[2],918 and 965 and 947 and 949 and 948 and 1077
same,AUC,[2],338 ng·h/mL and 366 ng·h/mL and 432 ng·h/mL and 342 ng·h/mL and 433 ng·h/mL
same,AUD,[2],379 ng · h/ml and 334 ng · h/ml and 359 ng · h/ml and 426 ng · h/ml (2×) and 337 ng · h/ml
same,AUDext,[2],1.4% (3×) and 1.0% and 1.9% and 1.5%
same,Cfirst (first measured concentration at 5 minutes),[2],306 ng/mL and 478 ng/mL and 560 ng/mL and 446 ng/mL and 605 ng/mL
same,Cinitial (extrapolated value at the end of the bolus),[2],569 ng/mL and 335 ng/mL and 567 ng/mL and 655 ng/mL and 525 ng/mL and 726 ng/mL
same,Cltot,[2],247 mL/min and 228 mL/min and 193 mL/min and 244 mL/min and 192 mL/min
same,Cltot/kg,[2],17.6 mL/min/kg and 15.4 mL/min/kg
same,MRTtot,[2],1.4 h and 1.5 h and 1.3 h (3×) and 1.2 h
same,t½ terminal,[2],11.3 h and 9.9 h and 10.4 h and 8.5 h and 10.7 h
same,clearance,"male, beagle, dog, plasma, iv, 5 mg, after intravenous administration, read-out: mean total clearance",17 mL/min/kg
same,half-life,"male, beagle, dog, plasma, iv, 5 mg, after intravenous administration, read-out: terminal elimination half-life (converted)",~10 h
same,AUC,"male, beagle, dog, plasma, iv, 5 mg, intravenous bolus, 5 mg cladribine/animal, Mean of 6 dogs, read-out: AUC",382 ng·h/mL
same,clearance,"male, beagle, dog, plasma, iv, 5 mg, intravenous bolus, 5 mg cladribine/animal, Mean of 6 dogs, read-out: Cltot",220 mL/min
same,clearance,"male, beagle, dog, plasma, iv, 5 mg, intravenous bolus, 5 mg cladribine/animal, Mean of 6 dogs, read-out: Cltot/kg",17.3 mL/min/kg
same,half-life,"male, beagle, dog, plasma, iv, 5 mg, intravenous bolus, 5 mg cladribine/animal, Mean of 6 dogs, read-out: t½ terminal (converted)",10.3 h
same,AUC,"male, beagle, dog, plasma, iv, 5 mg, intravenous bolus, 5 mg cladribine/animal, individual dogs PM01-PM06, read-out: AUC",383 ng·h/mL
same,clearance,"male, beagle, dog, plasma, iv, 5 mg, intravenous bolus, 5 mg cladribine/animal, individual dogs PM01-PM06, read-out: Cltot",217 mL/min
same,clearance,"male, beagle, dog, plasma, iv, 5 mg, intravenous bolus, 5 mg cladribine/animal, individual dogs PM01-PM06, read-out: Cltot/kg",18.1 mL/min/kg
same,half-life,"male, beagle, dog, plasma, iv, 5 mg, intravenous bolus, 5 mg cladribine/animal, individual dogs PM01-PM06, read-out: t½ terminal (converted)",11 h
same,concentration at 5 min,"male, beagle, dog, plasma, iv, intravenous bolus, 5 mg cladribine/animal, Mean of 6 dogs",479 ng/mL
same,concentration at 5 min,"male, beagle, dog, plasma, iv, intravenous bolus, 5 mg cladribine/animal, individual dogs PM01-PM06",477 ng/mL
